{
  "source": "ChEMBL document CHEMBL5223077",
  "about": "“Recent advances on synthesis and biological activities of aurones” (Bioorg Med Chem, 2021)",
  "key": {"[1]": {"test_system": "Mycobacterium tuberculosis", "assay": "Antimycobacterial activity against multidrug resistant Mycobacterium tuberculosis", "assay_type": "functional"}, "[2]": {"test_system": "Mycobacterium tuberculosis", "assay": "Antimycobacterial activity against extensively drug resistant Mycobacterium tuberculosis", "assay_type": "functional"}},
  "data": [
    {"smiles": "CC(=O)N1/C(=C\\c2ccc(-c3ccsc3)cc2)C(=O)c2ccccc21", "values": [
      {"measurement": "MIC", "setting": "[1]", "result": 7.55, "unit": "µM"},
      {"measurement": "MIC", "setting": "[2]", "result": 7.55, "unit": "µM"}
    ]}
  ]
}
